For 25 compounds, IC50 and inhibition results are on record in patent US6426355B1, “Heterocyclic carboxamide-containing thiourea inhibitors of herpes viruses containing phenylenediamine group” (American Home Products, priority 1998, dated 2002).

Values after ≈ are worked out from the molar mass of the structure shown.

One assay has as its system VZV strain Ellen. As to the kind of experiment: VZV Antiviral (ELISA) assay. The assay is classed as cell-based. The settings on record: for IC50: Human alphaherpesvirus 3, VZV strain Ellen in HFF cells, read-out: IC50 (ug/ml) VZV; for inhibition at 10 µg/mL: Human alphaherpesvirus 3, read-out: % inhibition 10 ug/ml VZV, at 10 ug/ml, VZV strain Ellen in HFF cells. The essentials:
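Antiviral IC50 is derived by comparing fluorescence with and without compound after a three-day culture of VZV-infected plus uninfected foreskin fibroblasts. Replication is quantified by ELISA against glycoprotein II, using a β-galactosidase secondary and methyl umbelliferyl-β-D-galactoside.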
(ELISA stands for enzyme-linked immunosorbent assay.)

Assay [1] has as its system HCMV recombinant mutant virus (RV145). As to the kind of experiment: HCMV microtiter plate assay (beta-glucuronidase reporter). The format is cell-based, Human Cytomegalovirus. The settings on record: Human betaherpesvirus 5, Fibroblast, read-out: IC50 (ug/ml) HCMV. The essentials:
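Replication was read out as virus-encoded β-glucuronidase activity, measured with a chromogenic or fluorogenic glucuronide substrate in cell lysates at 96 h post-infection. Infection of human foreskin fibroblasts with RV145 took place with compound present. IC50 was derived from a range of inhibitor amounts.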

Another assay concerns HSV-1. Kind of assay: HSV Antiviral (ELISA) assay. The format is cell-based. The conditions noted are these: Human alphaherpesvirus 1, HSV-1 in Vero cells, read-out: IC50 (ug/ml) HSV. The essentials: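 Replication measured as glycoprotein D signal in fixed cells: anti-gD antibody plus β-galactosidase-linked secondary, fluorogenic substrate read at 365/450 nm. Vero cells (2% FBS DMEM) received compound 30 min pre-infection, HSV-1 MOI 0.006, ~24 h incubation; IC50 relative to no-compound fluorescence.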

As for `O=C(Nc1ccc(NC(=S)Nc2ccc(I)c(Cl)c2)cc1)c1csnn1` [Example 971, [1,2,3]Thiadiazole-4-carboxylic acid {4-[3-(3-chloro-4-iodo-phenyl)-thioureido]-phenyl} -amide], the IC50 is greater than 10 µg/mL in the assay with VZV strain Ellen, 0.013 µg/mL (≈ 0.0252 µM) in assay [1] and greater than 10 µg/mL with HSV-1. Further, the inhibition at 10 µg/mL in the assay with VZV strain Ellen stood at 9%.

Regarding `O=C(Nc1ccc(NC(=S)Nc2ccc(F)c(Cl)c2)cc1)c1ccccc1F` [Example 972, N-{4-[3-(3-Chloro-4-fluoro-phenyl)-thioureido]-phenyl} -2-fluoro-benzamide], the IC50 in the assay on VZV strain Ellen was greater than 15 µg/mL; in assay [1], 0.006 µg/mL (≈ 0.0144 µM); in the assay on HSV-1 it was greater than 10 µg/mL. In addition, the inhibition at 10 µg/mL in the assay on VZV strain Ellen is 95%.

`O=C(Nc1ccc(NC(=S)Nc2cccc(Cl)c2Cl)cc1)c1csnn1` [Example 979, [1,2,3]Thiadiazole-4-carboxylic acid {4-[3-(2,3-dichloro-phenyl)-thioureido]-phenyl} -amide]: the IC50 is 12 µg/mL (≈ 28.3 µM) in the assay with VZV strain Ellen, 0.19 µg/mL (≈ 0.448 µM) in assay [1] and 8 µg/mL (≈ 18.9 µM) in the assay on HSV-1. In the assay with VZV strain Ellen, the inhibition at 10 µg/mL came out at 88%.

Turning to `CC(=O)Nc1ccc(NC(=S)Nc2cc(Cl)ccc2Cl)cc1` [Example 980, N-{4-[3-(2,5-Dichloro-phenyl)-thioureido]-phenyl} -acetamide], the inhibition at 10 µg/mL in the assay with VZV strain Ellen turned out to be 56%. The values for the IC50 (in assay [1]; in the assay on HSV-1) were 0.05 µg/mL (≈ 0.141 µM) and greater than 10 µg/mL, respectively.

Regarding `CC(=O)Nc1ccc(NC(=S)Nc2cc(Cl)c(Cl)c(Cl)c2)cc1` [Example 986, N-{4-[3-(3,4,5-Trichloro-phenyl)-thioureido]-phenyl}-acetamide], in the assay on VZV strain Ellen, the inhibition at 10 µg/mL stood at 5%. Also, the IC50 in assay [1] was 0.031 µg/mL (≈ 0.0798 µM); in the assay on HSV-1 it was greater than 10 µg/mL.

As for `O=C(Nc1ccc(NC(=S)Nc2cc(Cl)c(Cl)c(Cl)c2)cc1)c1csnn1` [Example 989, [1,2,3]Thiadiazole-4-carboxylic acid {4-[3-(3,4,5-trichloro-phenyl)-thioureido]-phenyl}-amide], the IC50 in the assay with VZV strain Ellen was greater than 10 µg/mL; in assay [1], 0.016 µg/mL (≈ 0.0349 µM); in the assay with HSV-1, greater than 10 µg/mL. Also, the inhibition at 10 µg/mL with VZV strain Ellen turned out to be 21%.

Turning to `O=C(Nc1ccc(NC(=S)Nc2ccc(-c3cc[nH]n3)c(Cl)c2)cc1)c1csnn1` [Example 991, [1,2,3]Thiadiazole-4-carboxylic acid (4-{3-[3-chloro-4-(1H-pyrazol-3-yl)-phenyl]-thioureido}-phenyl)-amide], the IC50 was greater than 10 µg/mL in the assay on VZV strain Ellen, 0.022 µg/mL (≈ 0.0483 µM) in assay [1] and greater than 10 µg/mL in the assay with HSV-1. Also, the inhibition at 10 µg/mL in the assay with VZV strain Ellen came to 3%.

Regarding `O=C(Nc1ccc(NC(=S)Nc2cccc(Cl)c2)cc1)c1csnn1` [Example 992, [1,2,3]Thiadiazole-4-carboxylic acid {4-[3-(3-chloro-phenyl)-thioureido]-phenyl}-amide], the values for the IC50 (in the assay with VZV strain Ellen; in assay [1]; in the assay with HSV-1) were greater than 10 µg/mL, 0.018 µg/mL (≈ 0.0462 µM) and greater than 10 µg/mL, respectively. Further, in the assay with VZV strain Ellen, the inhibition at 10 µg/mL came to 29%.

As to `O=C(Nc1ccc(NC(=S)Nc2cccc(Cl)c2)cc1)c1ccco1` [Example 993, Furan-2-carboxylic acid {4-[3-(3-chloro-phenyl)-thioureido]-phenyl}-amide], the values for the IC50 (in the assay on VZV strain Ellen; in assay [1]; in the assay with HSV-1) were greater than 10 µg/mL, 0.013 µg/mL (≈ 0.035 µM) and greater than 10 µg/mL, respectively.

For `O=C(Nc1ccc(NC(=S)Nc2cccc(Cl)c2)cc1)c1ccccc1F` [Example 994, N-{4-[3-(3-Chloro-phenyl)-thioureido]-phenyl}-2-fluoro-benzamide], the values for the IC50 (in the assay with VZV strain Ellen; in assay [1]; in the assay on HSV-1) were greater than 10 µg/mL, 0.07 µg/mL (≈ 0.175 µM) and greater than 10 µg/mL, respectively.

For the compound `O=C(Nc1ccc(NC(=S)Nc2ccc(Cl)cc2)cc1)c1ccccc1F` [Example 996, N-{4-[3-(4-Chloro-phenyl)-thioureido]-phenyl}-2-fluoro-benzamide], the figures for the IC50 (in the assay with VZV strain Ellen; in assay [1]; in the assay with HSV-1) were greater than 10 µg/mL, 0.15 µg/mL (≈ 0.375 µM) and 10 µg/mL (≈ 25 µM), respectively.

`NC(=O)c1cccc(NC(=S)Nc2ccc(NC(=O)c3ccco3)cc2)c1` [Example 1004, Furan-2-carboxylic acid {4-[3-(3-carbamoyl-phenyl)-thioureido]-phenyl} -amide]: the IC50 was greater than 10 µg/mL in the assay with VZV strain Ellen, 0.5 µg/mL (≈ 1.31 µM) in assay [1] and greater than 10 µg/mL in the assay on HSV-1. Besides, in the assay on VZV strain Ellen, the inhibition at 10 µg/mL worked out at 36%.

Turning to `NC(=O)c1cccc(NC(=S)Nc2ccc(NC(=O)c3csnn3)cc2)c1` [Example 1005, [1,2,3]Thiadiazole-4-carboxylic acid {4-[3-(3-carbamoyl-phenyl)-thioureido]-phenyl}-amide], the IC50 in the assay with VZV strain Ellen is greater than 10 µg/mL; in assay [1], 2 µg/mL (≈ 5.02 µM); in the assay on HSV-1 it was greater than 10 µg/mL. For the same compound, in the assay on VZV strain Ellen, the inhibition at 10 µg/mL was 16%.

On to `O=C(Nc1ccc(NC(=S)Nc2ccccc2Cl)cc1)c1csnn1` [Example 1006, [1,2,3]Thiadiazole-4-carboxylic acid {4-[3-(2-chloro-phenyl)-thioureido]-phenyl}-amide], for which the IC50 is greater than 10 µg/mL in the assay on VZV strain Ellen, 0.2 µg/mL (≈ 0.513 µM) in assay [1] and greater than 10 µg/mL in the assay on HSV-1. In addition, the inhibition at 10 µg/mL in the assay on VZV strain Ellen was 13%.

Regarding `O=C(Nc1ccc(NC(=S)Nc2cccc(F)c2)cc1)c1ccco1` [Example 1007, Furan-2-carboxylic acid {4-[3-(3-fluoro-phenyl)-thioureido]-phenyl} -amide], the IC50 is greater than 10 µg/mL in the assay on VZV strain Ellen, 0.11 µg/mL (≈ 0.31 µM) in assay [1] and greater than 10 µg/mL in the assay with HSV-1. In addition, the inhibition at 10 µg/mL in the assay on VZV strain Ellen worked out at 18%.

For the compound `O=C(Nc1ccc(NC(=S)Nc2cccc([N+](=O)[O-])c2)cc1)c1ccco1` [Example 1008, Furan-2-carboxylic acid {4-[3-(3-nitro-phenyl)-thioureido]-phenyl} -amide], the IC50 is greater than 10 µg/mL with VZV strain Ellen, 0.12 µg/mL (≈ 0.314 µM) in assay [1] and greater than 10 µg/mL with HSV-1. For the same compound, the inhibition at 10 µg/mL in the assay on VZV strain Ellen was 15%.

Turning to `O=C(Nc1ccc(NC(=S)Nc2cccc([N+](=O)[O-])c2)cc1)c1ccccc1F` [Example 1009, 2-Fluoro-N-{4-[3-(3-nitro-phenyl)-thioureido]-phenyl} -benzamide], in the assay on VZV strain Ellen, the inhibition at 10 µg/mL is 22%. The results for the IC50 (in assay [1]; with HSV-1) were 0.2 µg/mL (≈ 0.487 µM) and 10 µg/mL (≈ 24.4 µM), respectively.

On to `O=C(Nc1ccc(NC(=S)Nc2cccc(OC(F)(F)F)c2)cc1)c1ccccc1F` [Example 1011, 2-Fluoro-N-{4-[3-(3-trifluoromethoxy-phenyl)-thioureido]-phenyl} -benzamide], for which the inhibition at 10 µg/mL in the assay with VZV strain Ellen was found to be 20%. Further, the IC50 in assay [1] is 0.039 µg/mL (≈ 0.0868 µM); in the assay on HSV-1 it was greater than 10 µg/mL.

As for `O=C(Nc1ccc(NC(=S)Nc2cccc(S(=O)(=O)CCO)c2)cc1)c1ccco1` [Example 1018, Furan-2-carboxylic acid (4-{3-[3-(2-hydroxy-ethanesulfonyl)-phenyl]-thioureido} -phenyl)-amide], the IC50 in the assay with VZV strain Ellen is greater than 10 µg/mL; in assay [1], 0.4 µg/mL (≈ 0.898 µM); in the assay with HSV-1, greater than 10 µg/mL. Moreover, the inhibition at 10 µg/mL in the assay on VZV strain Ellen amounted to 2%.

On to `O=C(Nc1ccc(NC(=S)Nc2cccc(S(=O)(=O)CCO)c2)cc1)c1ccccc1F` [Example 1019, 2-Fluoro-N-(4-{3-[3-(2-hydroxy-ethanesulfonyl)-phenyl]-thioureido} -phenyl)-benzamide], for which the inhibition at 10 µg/mL in the assay with VZV strain Ellen was found to be 2%. Moreover, the values for the IC50 (in assay [1]; with HSV-1) were 1.5 µg/mL (≈ 3.17 µM) and greater than 10 µg/mL, respectively.

For the compound `Cc1cc(NC(=S)NC(C)c2ccc(F)cc2)ccc1NC(=O)c1cc2ccccc2cn1` (stereo not drawn) [Example 1126, Isoquinoline-3-carboxylic acid (4-{3-[1-(4-fluoro-phenyl)-ethyl]-thioureido}-2-methyl-phenyl)-amide], the IC50 in the assay on VZV strain Ellen was 0.7 µg/mL (≈ 1.53 µM); in assay [1], 5.8 µg/mL (≈ 12.6 µM); with HSV-1 it was greater than 10 µg/mL.

`CC(NC(=S)Nc1ccc(NC(=O)c2cnccn2)cc1)c1ccc(F)cc1` (stereo not drawn) [Example 1127, Pyrazine-2-carboxylic acid (4-{3-[1-(4-fluoro-phenyl)-ethyl]-thioureido}-phenyl)-amide]: the IC50 is 3.7 µg/mL (≈ 9.36 µM) with VZV strain Ellen, 1 µg/mL (≈ 2.53 µM) in assay [1] and 9.5 µg/mL (≈ 24 µM) in the assay with HSV-1.

Turning to `CC(NC(=S)Nc1ccc(NC(=O)c2cccs2)cc1)c1ccc(F)cc1` (stereo not drawn) [Example 1128, Thiophene-2-carboxylic acid (4-{3-[1-(4-fluoro-phenyl)-ethyl]-thioureido}-phenyl)-amide], the IC50 is greater than 10 µg/mL with VZV strain Ellen, 1.3 µg/mL (≈ 3.25 µM) in assay [1] and greater than 10 µg/mL with HSV-1.

Turning to `CC(NC(=S)Nc1ccc(NC(=O)c2ccsc2)cc1)c1ccc(F)cc1` (stereo not drawn) [Example 1129, Thiophene-3-carboxylic acid (4-{3-[1-(4-fluoro-phenyl)-ethyl]-thioureido}-phenyl)-amide], the IC50 with VZV strain Ellen is greater than 10 µg/mL; in assay [1], 1 µg/mL (≈ 2.5 µM); in the assay on HSV-1, 1.9 µg/mL (≈ 4.76 µM).

Regarding `CC(C)c1nc(C(=O)Nc2ccc(NC(=S)Nc3ccc(Cl)c(C(F)(F)F)c3)cc2)cs1` [Example 1130, 2-Isopropyl-thiazole-4-carboxylic acid {4-[3-(4-chloro-3-trifluoromethyl-phenyl)-thioureido]-phenyl}-amide], the IC50 with VZV strain Ellen is 5.5 µg/mL (≈ 11 µM); in assay [1], 2 µg/mL (≈ 4.01 µM); in the assay on HSV-1, 2 µg/mL (≈ 4.01 µM).
